Assay results taken from article PMC10980263, “Cryo-EM structures of the human NaS1 and NaDC1 transporters revealed the elevator transport and allosteric regulation mechanism” (Science Advances, 2024).
Substitutions are numbered along the chain they refer to.

Assays:
NaDC1 [1] = molecular target: T1, NaDC1 (Homo sapiens, UniProt Q13183); assay: CD thermal melting at […] nm; type: binding; design: gene SLC13A2; full length, homodimer; N-terminal FLAG purified from HEK293F (structures, natural variant I550V); GFP and FLAG tagged in HEK293T for currents; details: absolute Tm in presence of citrate, not a shift; whether WT carries I550V not stated
T1 sequence (Q13183 1-592): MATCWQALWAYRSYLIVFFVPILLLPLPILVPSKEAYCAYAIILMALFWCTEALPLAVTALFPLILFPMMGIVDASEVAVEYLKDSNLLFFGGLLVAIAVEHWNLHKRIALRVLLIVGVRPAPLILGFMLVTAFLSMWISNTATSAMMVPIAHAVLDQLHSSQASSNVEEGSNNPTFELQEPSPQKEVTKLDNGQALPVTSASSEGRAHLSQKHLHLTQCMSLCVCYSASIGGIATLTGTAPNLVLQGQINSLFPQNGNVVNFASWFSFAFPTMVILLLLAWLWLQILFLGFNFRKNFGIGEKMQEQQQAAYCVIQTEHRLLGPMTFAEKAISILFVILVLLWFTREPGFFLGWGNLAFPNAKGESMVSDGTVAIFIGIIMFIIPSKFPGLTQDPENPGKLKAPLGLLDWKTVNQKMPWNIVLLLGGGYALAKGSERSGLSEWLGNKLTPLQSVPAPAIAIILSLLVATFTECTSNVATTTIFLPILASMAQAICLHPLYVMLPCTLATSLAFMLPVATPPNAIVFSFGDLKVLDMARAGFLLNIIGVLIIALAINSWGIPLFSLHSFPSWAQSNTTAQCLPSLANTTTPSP

NaDC1 [2] = molecular target: T2, NaDC1 (Homo sapiens, UniProt Q13183, R108A); assay: whole-cell patch clamp, transfected HEK293T; type: cell-based; details: citrate-induced current; 140 mM NaCl bath, pH 7.4
T2 construct: gene SLC13A2; full length, homodimer; N-terminal FLAG purified from HEK293F (structures, natural variant I550V); GFP and FLAG tagged in HEK293T for currents
T2 sequence (Q13183 1-592 R108A): T1 sequence (Q13183 1-592) with R108A

NaDC1 [3] = molecular target: T3, NaDC1 (Homo sapiens, UniProt Q13183, T142A); assay: CD thermal melting at […] nm; type: binding; details: absolute Tm in presence of citrate, not a shift
T3 construct: gene SLC13A2; full length, homodimer; N-terminal FLAG purified from HEK293F (structures, natural variant I550V); GFP and FLAG tagged in HEK293T for currents
T3 sequence (Q13183 1-592 T142A): T1 sequence (Q13183 1-592) with T142A

NaDC1 [4] = molecular target: T4, NaDC1 (Homo sapiens, UniProt Q13183, N141A); assay: CD thermal melting at […] nm; type: binding; details: absolute Tm in presence of citrate, not a shift
T4 construct: gene SLC13A2; full length, homodimer; N-terminal FLAG purified from HEK293F (structures, natural variant I550V); GFP and FLAG tagged in HEK293T for currents
T4 sequence (Q13183 1-592 N141A): T1 sequence (Q13183 1-592) with N141A

NaDC1 [5] = molecular target: T1, NaDC1; assay: whole-cell patch clamp, transfected HEK293T; type: cell-based; design: gene SLC13A2; full length, homodimer; GFP and FLAG tagged in HEK293T for currents; details: gradient of citrate concentrations; 140 mM NaCl bath, pH 7.4

Tm (NaDC1 [1]): 62.9 ± 0.3 °C
Tm (NaDC1 [3]): 56.4 ± 0.3 °C
Tm (NaDC1 [4]): 61.3 ± 0.5 °C
Compound: O=C(O)CC(O)(CC(=O)O)C(=O)O [citrate]
whole-cell patch clamp, transfected HEK293T (NaDC1 [2]): The R108A mutant substantially reduced the citrate-induced current than WT in NaDC1
whole-cell patch clamp, transfected HEK293T (NaDC1 [5]): wild-type (WT) NaDC1 is indeed capable of transporting citrate
